Source: patent US20130150384A1, “METHOD FOR TREATMENT OF BRAIN CANCERS” (KOREA INSTITUTE OF SCIENCE AND TECHNOLOGY, priority 2008, published 2013)
Entries after “also recorded” stand apart in the source; their conditions may differ.

Tests used:
GBM cells = test: Ca^2+ imaging of Fura2-AM loaded GBM cells; assay type: cell-based, human
Text: Error bars represent SEM.
It is hypothesized that these molecules existing in the Ca^2+ release pathway serve as a potential molecular target in controlling migration and invasion of GBM.

HEK293T cell line = test: Block against TFLLR-induced intracellular Ca^2+ release in HEK293T; assay type: cell-based; settings: 10 mM caffeine, 30 μM TFLLR
glioma = test: Soft agar assay (colony formation); assay type: cell-based, human; settings: 0.5, 1, 2, 5, or 10 mM caffeine, 14 to 17 days
Procedure: Cells (1×10^4) were seeded into 6-well plates in a soft agar (0.3%, Difco) overlaying a 0.6% base agar. […] Cells were incubated at 37 for 14 to 17 days to allow colonies to develop. Afterward colonies were stained with 0.05% cresyl violet and photographed. […] Each assay was done in triplicate (n=3)

U87MG cells = test: Xenograft tumor growth assay; assay type: in vivo, athymic mice (Balb/c nu/nu); settings: caffeine 1 mg/ml in drinking water from day 7, subcutaneous U87MG, 4 weeks
Procedure: Five-week-old athymic mice (Balb/c nu/nu) were obtained from Central Lab. Animal Inc. (Japan). For the xenograft tumor growth assay, U87MG cells (3×10^5 cells/150 ul PBS) were injected subcutaneously into the right flanks of the mice (n=5 to 10 mice per group), and the experiment was conducted in triplicate. […] The control animals were given distilled water. Tumor mass was estimated twice per week for 4 weeks, and tumor volumes were calculated by the formula: […]

[1] = test system: human cell line (SH-SY5Y, ATCC); test: Block against bradykinin-induced intracellular Ca^2+ release in human glioblastoma cell line; assay type: cell-based; settings: 10 mM caffeine, 10 μM bradykinin
human U87MG = test: Survival in orthotropic implantation model; settings: 1 mg/ml caffeine containing drinking water, intracranial U87MG

COc1ccc2c(c1)CC[C@@H]1[C@@H]2CC[C@]2(C)[C@@H](NCCCCCCN3C(=O)C=CC3=O)CC[C@@H]12 [U73122]
release of Ca^2+ from intracellular stores in response to activation of GPCRs and RTKs (GBM cells): completely inhibited

Cn1c(=O)c2c(ncn2C)n(C)c1=O [caffeine]
intracellular Ca^2+ release (HEK293T cell line): blocked | proliferation / anchorage-independent growth (colony numbers) (glioma): reduced the anchorage-independent growth of glioma in vitro, in a dose dependent manner; also recorded: significantly inhibited | increase of tumor mass (U87MG cells): significantly inhibited | intracellular Ca^2+ release [1]: blocked | survival rate (human U87MG): significantly increase the survival rate

C/C=C(/C)C(=O)O[C@H]1C(C)=C2[C@H]([C@@H]1OC(=O)CCCCCCC)[C@@](C)(OC(C)=O)C[C@H](OC(=O)CCC)[C@@]1(O)[C@H]2OC(=O)[C@@]1(C)O [thapsigargin]
subsequent increase in [Ca^2+]i by bradykinin after store depletion (GBM cells): completely inhibited
